The results in this text go back to article PMC10614203, “Synthesis, Structure–Activity Relationships, Radiofluorination, and Biological Evaluation of [^18F]RM365, a Novel Radioligand for Imaging the Human Cannabinoid Receptor Type 2 (CB2R) in the Brain with PET” (Journal of Medicinal Chemistry, 2023).

This data set has as its target T1, hCB2R(D80N) (Homo sapiens, UniProt P34972, D80N).
T1 construct: expressed in transfected cells; host or cells: neurons of the right striatum of male Wistar rats, transduced in vivo with the AAV2/7-CaMKII0.4-intron-hCB2R(D80N) vector
The format is in vivo. Conditions: for reduction of the normalized AUC between 20 and 60 min p.i.: GW405833 i.v. 20 min after radioligand. From the text: In a proof-of-concept study, the specific binding to the human CB2R and the ability to cross the blood–brain barrier of [^18F]RM365 in vivo was investigated by PET imaging experiments using an established rat model with a local overexpression of hCB2R(D80N) in the right striatum (target region).[32],[66] Exemplary images of the averaged time frames of the PET study, as well as the TACs of the target region and both reference regions on the contralateral site and the cerebellum, are shown in Figure 10. […] However, the TAC peak value was four to five times lower in the reference regions, which was reflected by the seven to eight times lower accumulated activity over time expressed as the area under the curve (AUC) of [^18F]RM365 (Table 3). The high signal-to-background ratio is reflected by a SUVr of 15 ± 5 and 20 ± 5 for the target region-to-contralateral and -cerebellum ratios, respectively, at 60 min p.i. […] Additionally, we investigated the reversibility of the binding toward the human CB2R receptor in vivo in displacement studies by administering the CB2R-specific agonist GW405833 into the tail vein 20 min after the radioligand injection into the hCB2R(D80N)-overexpressing rat model (Figure 10B, Table 3). […] The signal in the contralateral side (p-value = 0.1621, two-way ANOVA) and in the cerebellum (p-value = 0.6177, two-way ANOVA) was not affected by the treatment over time with GW405833 (Figure S6), underlining the eligibility of these reference regions.
In vivo biodistribution studies of [^18F]RM365 were performed in female CD-1 mice (n = 4, 31 ± 3 g) and female Wistar rats (n = 4, 150 ± 11 g). For the uptake studies into the brain, male Wistar rats carrying the stereotactically injected AAV2/7-CaMKII0.4-intron-hCB2R(D80N) (right striatum) and AAV2/7-CaMKII0.4-intron-3flag-eGFP (control/contralateral, left striatum) were used (n = 6; bodyweights were 260 ± 11 g). Data were assessed by dynamic small animal PET (Nanoscan, Mediso, Budapest, Hungary) in 60 min recordings, followed by T1-weighted (GRE, TR/TE = 15.0/2.4 ms, 252/252, FA = 25°) MR imaging with whole-body coils for anatomical correlation and attenuation correction.
The PET scans were performed 3−4 months after the stereotactic injections. Animals were initially anesthetized with 5% isoflurane and placed on a thermostatically heated animal bed, where anesthesia was maintained with 2% isoflurane in 60% oxygen/38% room air. […] Nonparametric (semiquantitative) analysis of achieved time–activity curves (TACs) was performed with Microsoft Excel to determine the time to peak, the TAC peak value, and the area under the curve (AUC) [drawing 1] where c (radioactivity) is expressed as the standardized uptake value normalized to the bodyweight in g (SUV). […]

Where [1] appears, read: male, Wistar, rat, in vivo, 60 min.

Like-named read-outs stand apart in the source and are kept apart here.

T1 sequence (P34972 whole entry D80N): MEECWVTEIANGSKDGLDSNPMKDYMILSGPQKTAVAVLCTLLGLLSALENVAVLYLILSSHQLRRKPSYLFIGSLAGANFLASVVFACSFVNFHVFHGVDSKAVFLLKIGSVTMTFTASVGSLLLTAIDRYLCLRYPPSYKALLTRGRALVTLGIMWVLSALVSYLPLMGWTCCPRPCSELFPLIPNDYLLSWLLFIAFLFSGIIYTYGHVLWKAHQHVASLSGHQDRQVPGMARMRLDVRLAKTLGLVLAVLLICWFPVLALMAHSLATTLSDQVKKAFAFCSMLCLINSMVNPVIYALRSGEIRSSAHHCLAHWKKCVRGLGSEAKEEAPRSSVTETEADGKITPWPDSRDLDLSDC

On to `CC1(C)Cc2ccc(C#N)cc2[C@@H]1NC(=O)c1cc2cc([18F])ccc2[nH]1` [[^18F]RM365], for which the “reduction of the normalized AUC between 20 and 60 min p.i.” value (cerebellum as reference region) is 70%. For the same molecule, the “reduction of the normalized AUC between 20 and 60 min p.i.” value (contralateral site as reference region) is 64%. Under setting [1], this molecule gave an SUVr target region-to-cerebellum of 20 ± 5 and an SUVr target region-to-contralateral of 15 ± 5.
